# According to publication PMC5723147, “Effective Antimicrobial Activity of Plectasin-Derived Antimicrobial Peptides against Staphylococcus aureus Infection in Mammary Glands” (Frontiers in Microbiology, 2017):
# Legend:
# [1] = test system: Staphylococcus aureus E48; assay: Minimum inhibitory concentration (broth microdilution, Mueller-Hinton broth); type: cell-based; settings: 5 × 10^5 CFU/mL, 37°C, 16-20 h, three replicates, read-out: MIC against S. aureus E48
# Experimental: Staphylococcus aureus E48, a clinical mastitis isolate, had been used to induce mouse mastitis model ([Wang et al., 2017]). […] It was used as a positive control in this study and was purchased from Sigma–Aldrich. The AMPs were prepared according to a previously described protocol ([Zhang et al., 2015]). The minimum inhibitory concentrations (MICs) were used to evaluate the antibacterial activities of antimicrobial agents ([Wiegand et al., 2008]). Briefly, S. aureus were grown to the log-phase at 37°C in the Mueller–Hinton broth, and diluted to 5 × 10^5 CFU/mL with the fresh medium. A total of 180 μL of cell suspension and 20 μL of serially twofold diluted peptide were added to each well, and the plates were incubated at 37°C for 16–20 h. The final concentration of antimicrobial agents was prepared with gradients of 64, 32, 16, 8, 4, 2, 1, 0.5, 0.25, 0.125, and 0.0625 μg/mL. Three replicates were examined for each concentration. The MICs refer to the lowest concentration where no growth was visible after 16–20 h of incubation.
# [2] = test system: S. aureus E48 in mammary glands; assay: Mouse model of S. aureus-induced mastitis; type: in vivo, BALB/c mice
# Experimental: The animal protocols used in this work were approved by Institutional Animal Care and Use Committee of Northwest A&F University. The 6- to 8-week-old specific-pathogen-free BALB/c mice were purchased from the Experimental Animal Center of the Medical College of Xi’an Jiao Tong University. […] The lactating mice were challenged with S. aureus E48 as described earlier ([Schmelcher et al., 2015]). The pentobarbital sodium (1.4 mg/20 g bodyweight) was used for anesthesia of the lactating mice by intraperitoneal injection. The distal end of the teat L4 (on the left) and R4 (on the right) was removed (snipped) by a small cut. These L4 and R4 glands constitute the fourth pair found from head to tail. For all groups except for the snipped only group, glands were injected with approximately 10^4 CFU S. aureus in 50 μL PBS. At 45 min after S. aureus inoculation, the challenged glands were injected with 100 μg AMPs in 20 μL or 20 μL of PBS, depending on the treatment. The mice were euthanized 24 h after the S. aureus inoculation, and mammary glands were aseptically collected and weighed. Five mice (10 mammary glands) were used for each group. Seven mammary glands from each treatment were sampled and homogenized in PBS (100 mg/200 μL). Serial dilution plating on Baird-Parker agar plates was done to determine intramammary S. aureus. A part of the homogenate was centrifuged, and the supernatant was used for tumor necrosis factor alpha (TNF-α) and interleukin 6 (IL-6) assays, using the mouse TNF-α and IL-6 ELISA kits (Shanghai Bangyi Biotechnology). The tissue from three mammary glands from each treatment was fixed with 10% buffered formalin for histopathological analyses (HE staining).
# [3] = 100 μg intramammary, 24 h post-infection, ELISA, P < 0.05
smiles,measurement,setting,value
"CN(C)[C@@H]1C(O)=C(C(N)=O)C(=O)[C@@]2(O)C(O)=C3C(=O)c4c(O)cccc4[C@@](C)(O)[C@H]3C[C@@H]12 [tetracycline, Tetracycline]",MIC,[1],1 µg/mL
same,Reduction of S. aureus numbers in mammary glands compared to PBS control,"[2]; 100 μg intramammary 45 min after ~10^4 CFU inoculation, 24 h after inoculation",1.48 log10 units
same,S. aureus-induced inflammatory cell infiltration in mammary tissue (HE staining),"[2]; 100 μg intramammary, 24 h",significantly reduced
same,Intramammary IL-6 concentration in comparison with buffer control,[2]; [3],significantly reduced
same,Intramammary TNF-α concentration in comparison with buffer control,[2]; [3],significantly reduced
